Test results from US11154551B2, “HDAC1,2 inhibitors and methods of using the same” (UNIVERSITY OF UTAH RESEARCH FOUNDATION, priority 2014, dated 2021).
Entries after “also recorded” stand apart in the source; their conditions may differ.

Assays:
[1] = system: Karpas-422, SUDHL4, WSU-DLCL2 and HeLa cells; experiment: laser micro-irradiation repair assay, H3K27me3 at break sites; type: cell-based, human; conditions: 15 min recovery, vs DMSO
Protocol: Following DMSO or ACY-957 treatment, cells were exposed to a 5Gy dose of ionizing radiation and allowed to recover for 30 minutes prior to chromatin extraction. Western blots were performed with anti-H3K27ac or anti-H3K27me3 with histone H3 serving as a loading control. (B-E): Karpas-422, SUDHL4, WSU-DLCL2 and HeLa cells were laser micro-irradiated and allowed to recover for 15 minutes before fixation and immunofluorescence staining with anti-γH2AX and anti-H3K27me3. Subsequently, the percentage of cells with H3K27me3 lines that co-localized with γH2AX were counted. Merge is the overlay of γH2AX and H3K27me3 pictures. (F-I): At least 100 cells with γH2AX lines were counted in each experiment. The quantitation shown was the average calculated from independent experiments+/−standard error. Quantitation from five, seven, five and six independent experiments performed in Karpas-422, SUDHL4, WSU-DLCL2 and HeLa cells, respectively, was used in the graph shown in this figure. […]
(A) Measurement of repair efficiency in SUDHL5 (EZH2^WT) and Karpas-422 (EZH2^GOF) cells using neutral comet assay that detects only double-strand breaks (DSBs). […] H3K27me3, γH2AX, Bmi-1, and serine2-phosphorylated RNA Polymerase II (engaged in transcriptional elongation) were monitored at laser break sites (arrows) after 15 minutes of recovery time. […]

[2] = system: Karpas-422 and SUDHL4 cells; experiment: Western blot of acid-extracted histones (H4K91ac, H4K16ac, monoubiquitinated H4); type: cell-based, human; conditions: for monoubiquitinated form of H4 after doxorubicin: 48 h pretreatment, then 50 nM doxorubicin 4 h or 8 h
[3] = system: glioma cell lines U-87 and U-251; experiment: propidium iodide FACS cell cycle analysis; type: cell-based; conditions: 2 μM, 72 hours
Protocol: Cells were treated with ACY957 or DMSO for 72 hours, stained with propidium iodide, and assessed by FACS. The percentage of cells in Sub-G1, G1, S, and G2-M phases were quantified for each sample.
Glioma is a type of primary brain tumor that originates in the glial cells present in the brain or spinal cord. The glioma cell lines U-87 and U-251 were treated with either DMSO or 2 μM ACY957 for 72 hours and then subjected to propidium iodide staining and FACS analysis to evaluate cell cycle progression.

[4] = system: Karpas-422 cells; experiment: propidium-iodide / BrdU-PI cell cycle analysis; type: cell-based, human
Protocol: (B): Quantitation of the cell cycle data in (A), compiled from three independent analyses. The graphs plotted the average percentage of cells in each phase of the cell cycle. […] (C): FACS analysis following BrdU-PI staining of Karpas-422 and SUDHL4 cells was performed following a 48 h or 72 h treatment with ACY-957.
Cell cycle analysis of propidium-iodide stained cells was performed with fixed cells. […] (C): FACS analysis following BrdU-PI staining of Karpas-422 and SUDHL4 cells was performed following a treatment with 2 μM ACY-957, 50 nM doxorubicin or both for 48 h.
(B): Quantitation of the cell cycle analysis performed in (A). Data from three independent cell cycle analyses were compiled and average percentage cells with standard errors were shown in this panel.
Propidium-iodide Cell Cycle Analysis.
Since these DLBCL cells expressed a hyperactive form of EZH2, pharmacological inhibition of EZH2 activity was considered a therapeutic strategy. […] GSK126 was a S-adenosyl-methionine-competitive inhibitor of EZH2 methyltransferase activity, and DZNep was a S-adenosylhomocysteine hydrolase inhibitor that disrupted the components of the PRC2 complex, thereby causing reduced chromatin-associated EZH2 levels.
To test this possibility, cell cycle analysis following treatment of Karpas-422 with ACY-957, doxorubicin, or ACY-957 in combination with doxorubicin was performed.

[5] = system: Karpas-422 cells; experiment: RNA-seq gene expression analysis; type: cell-based, human; conditions: 24 h
[6] = system: Karpas-422 and SUDHL4 cells; experiment: Western blot of histone acetylation marks in whole cell lysates; conditions: vs DMSO

`Nc1ccc(-c2cccs2)cc1NC(=O)c1ccc2nc(N3CCNCC3)ccc2c1` [ACY-957, N-(2-amino-5-(thiophen-2-yl)phenyl)-2-(piperazin-1-yl)quinoline-6-carboxamide] was tested, and the “H3K27me3 at laser-induced break sites” value [1] was “reduced the extent of H3K27me3 present at laser-induced break sites”, the “H3K27me3 at laser-induced break sites” value ([1]; listed as ACY957) was “abolished” and the “global H4K16ac levels” value ([2]; 2 μM, 48 hr) was “increased global levels of H4K16ac”. The “global H4K91ac levels” value ([2]; 2 μM, 48 hr) was “increased global H4K91ac levels”, the “global monoubiquitinated form of H4” value ([2]; 30 h or 48 h, without doxorubicin) was “no change in global levels of the slow migrating monoubiquitinated form of H4” and the “monoubiquitinated form of H4 after doxorubicin” value [2] was “significant reduction to complete absence of the slow migrating monoubiquitinated form of H4”. The “monoubiquitinated form of H4 after doxorubicin” value ([2]; listed as ACY957) was “decrease in the BBAP-mediated H4K91 monoubiquitination”, the “effect on the cell cycle” value [3] was “No effect on the cell cycle” and the “cell death / sub-G1 population” value ([4]; 2 μM ACY-957, 50 nM doxorubicin or both, 48 h) was “sub-G1 population (i.e., dead cells) was observed”. For the same compound, the “progression through the cell cycle” value ([4]; 24 h, 2 μM ACY-957, 0.5 μM DZNEP, 0.5 μM GSK126) was “did not affect their progression through the cell cycle”, the “cell cycle / sub-G1 (dead cells)” value ([4]; 48 h, 2 μM ACY-957, 0.5 μM DZNEP, 0.5 μM GSK126) was “modest accumulation of sub-G1 population” and the “S-phase population, BrdU-PI FACS” value ([4]; 48 h and 72 h, accompanied by increased cell death) was “decrease in S-phase population”. The “cell cycle / sub-G1 (dead cells)” value ([4]; 72 h, 2 μM ACY-957, 0.5 μM DZNEP, 0.5 μM GSK126) was “larger increase in the number of sub-G1/dead cells; also recorded: large increase in the number of sub-G1 or dead Karpas-422 cells”, the “number of genes up regulated” value ([5]; 2 μM, vs DMSO) was 492 genes and the “BLIMP1 expression up regulation” value ([5]; DESeq analysis of RNA-seq) was 1.7 fold. The H3K23ac levels ([6]; 2 μM, 24 hours) was “increased H3K23ac levels” and the “H3K9,K14ac and H4K5ac levels” value ([6]; increasing amounts, 24 hr) was “concentration-dependent increase”.
